Data taken from patent publication US6358885B1, “Substituted phenylheterocyclic herbicides” (Mississippi State University, priority 1992, dated 2002).

Columns and labels:
Experiment in all cases: Test F preemergence/postemergence greenhouse plant response rating 0 to 100
[1] = test system: winter barley; format: in vivo, Hordeum vulgare cv. ‘Igri’; conditions: POSTEMERGENCE, 0 to 100 scale
Summary of the method: (§1)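 Response on a 0–100 scale was scored visually relative to untreated controls after roughly 21–28 greenhouse days. Postemergence treatment was given at the one-to-four leaf stage (60:40 sandy loam/potting mix). Preemergence treatment went onto sandy loam soil within about a day of planting, with compounds formulated in a non-phytotoxic solvent.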

[2] = test system: chickweed; format: in vivo, Stellaria media; conditions: POSTEMERGENCE, 0 to 100 scale
Summary of the method: as §1

[3] = test system: downy brome; format: in vivo, Bromus tectorum; conditions: POSTEMERGENCE, 0 to 100 scale
Summary of the method: as §1

[4] = test system: field violet; format: in vivo, Viola arvensis; conditions: POSTEMERGENCE, 0 to 100 scale
Summary of the method: as §1

[5] = test system: galium; format: in vivo, Galium aparine; conditions: POSTEMERGENCE, 0 to 100 scale; for Galium (1) plant response rating: stage (1) two to three leaves; for Galium (2) plant response rating: stage (2) approximately four leaves or initial tillering
Summary of the method: as §1

[6] = test system: kochia; format: in vivo, Kochia scoparia; conditions: POSTEMERGENCE, 0 to 100 scale
Summary of the method: as §1

[7] = test system: lambsquarters; format: in vivo, Chenopodium album; conditions: POSTEMERGENCE, 0 to 100 scale
Summary of the method: as §1

[8] = test system: ryegrass; format: in vivo, Lolium multiflorum; conditions: POSTEMERGENCE, 0 to 100 scale
Summary of the method: as §1

[9] = test system: sunflower; format: in vivo, Helianthus annuus cv. ‘Russian Giant’; conditions: POSTEMERGENCE, 0 to 100 scale
Summary of the method: as §1

[10] = test system: spring wheat; format: in vivo, Triticum aestivum cv. ‘ERA’; conditions: POSTEMERGENCE, 0 to 100 scale
Summary of the method: as §1

[11] = test system: winter wheat; format: in vivo, Triticum aestivum cv. ‘Talent’; conditions: POSTEMERGENCE, 0 to 100 scale
Summary of the method: as §1

[12] = test system: wild mustard; format: in vivo, Sinapis arvensis; conditions: POSTEMERGENCE, 0 to 100 scale
Summary of the method: as §1

[13] = test system: wild oat; format: in vivo, Avena fatua; conditions: POSTEMERGENCE, 0 to 100 scale; for Wild oat (1) plant response rating: stage (1) two to three leaves; for Wild oat (2) plant response rating: stage (2) approximately four leaves or initial tillering
Summary of the method: as §1

[14] = test system: wild radish; format: in vivo, Raphanus raphanistrum; conditions: POSTEMERGENCE, 0 to 100 scale
Summary of the method: as §1

Q: For `Fc1cc(Cl)c(OCCCl)cc1-c1nn2c(c1Cl)CCCC2` [Compound 49], which “Winter Barley plant response rating” value ([1]; Rate 2 g/ha) is on record?
A: Its value is 0.

Q: And the “Winter Barley plant response rating” value ([1]; Rate 4 g/ha)?
A: The value was 0.

Q: What about the “Winter Barley plant response rating” value ([1]; Rate 8 g/ha) of the same compound?
A: Its value is 10.

Q: And the “Winter Barley plant response rating” value ([1]; Rate 16 g/ha)?
A: Its value is 10.

Q: What about the “Winter Barley plant response rating” value ([1]; Rate 32 g/ha) of the same compound?
A: The value was 20.

Q: What about the “Chickweed plant response rating” value ([2]; Rate 2 g/ha) of the same compound?
A: The value was 0.

Q: And the “Chickweed plant response rating” value ([2]; Rate 4 g/ha)?
A: The value was 0.

Q: What about the “Chickweed plant response rating” value ([2]; Rate 8 g/ha) of the same compound?
A: Its value is 20.

Q: And the “Chickweed plant response rating” value ([2]; Rate 16 g/ha)?
A: The value was 50.

Q: And the “Chickweed plant response rating” value ([2]; Rate 32 g/ha)?
A: Its value is 60.

Q: What about the “Downy brome plant response rating” value ([3]; Rate 2 g/ha) of the same compound?
A: Its value is 0.

Q: And the “Downy brome plant response rating” value ([3]; Rate 4 g/ha)?
A: The value was 0.

Q: And the “Downy brome plant response rating” value ([3]; Rate 8 g/ha)?
A: Its value is 0.

Q: What about the “Downy brome plant response rating” value ([3]; Rate 16 g/ha) of the same compound?
A: Its value is 10.

Q: What about the “Downy brome plant response rating” value ([3]; Rate 32 g/ha) of the same compound?
A: The value was 10.

Q: And the “Field violet plant response rating” value ([4]; Rate 8 g/ha)?
A: Its value is 60.

Q: And the “Field violet plant response rating” value ([4]; Rate 16 g/ha)?
A: The value was 60.

Q: And the “Field violet plant response rating” value ([4]; Rate 32 g/ha)?
A: Its value is 100.

Q: And the “Galium (1) plant response rating” value ([5]; Rate 2 g/ha)?
A: Its value is 0.

Q: What about the “Galium (2) plant response rating” value ([5]; Rate 2 g/ha) of the same compound?
A: Its value is 0.

Q: What about the “Galium (1) plant response rating” value ([5]; Rate 4 g/ha) of the same compound?
A: The value was 30.

Q: And the “Galium (2) plant response rating” value ([5]; Rate 4 g/ha)?
A: The value was 30.

Q: What about the “Galium (1) plant response rating” value ([5]; Rate 8 g/ha) of the same compound?
A: The value was 35.

Q: What about the “Galium (2) plant response rating” value ([5]; Rate 8 g/ha) of the same compound?
A: The value was 30.

Q: What about the “Galium (1) plant response rating” value ([5]; Rate 16 g/ha) of the same compound?
A: Its value is 40.

Q: And the “Galium (2) plant response rating” value ([5]; Rate 16 g/ha)?
A: Its value is 40.

Q: And the “Galium (1) plant response rating” value ([5]; Rate 32 g/ha)?
A: The value was 40.

Q: And the “Galium (2) plant response rating” value ([5]; Rate 32 g/ha)?
A: The value was 40.

Q: What about the “Kochia plant response rating” value ([6]; Rate 2 g/ha) of the same compound?
A: Its value is 20.

Q: And the “Kochia plant response rating” value ([6]; Rate 4 g/ha)?
A: Its value is 60.

Q: And the “Kochia plant response rating” value ([6]; Rate 8 g/ha)?
A: The value was 80.

Q: And the “Kochia plant response rating” value ([6]; Rate 16 g/ha)?
A: Its value is 100.

Q: What about the “Kochia plant response rating” value ([6]; Rate 32 g/ha) of the same compound?
A: The value was 100.

Q: What about the “Lambsquarters plant response rating” value ([7]; Rate 4 g/ha) of the same compound?
A: The value was 50.

Q: What about the “Lambsquarters plant response rating” value ([7]; Rate 16 g/ha) of the same compound?
A: Its value is 50.

Q: What about the “Lambsquarters plant response rating” value ([7]; Rate 32 g/ha) of the same compound?
A: The value was 70.

Q: And the “Ryegrass plant response rating” value ([8]; Rate 2 g/ha)?
A: The value was 0.

Q: What about the “Ryegrass plant response rating” value ([8]; Rate 4 g/ha) of the same compound?
A: The value was 0.

Q: What about the “Ryegrass plant response rating” value ([8]; Rate 8 g/ha) of the same compound?
A: The value was 0.

Q: And the “Ryegrass plant response rating” value ([8]; Rate 16 g/ha)?
A: The value was 0.

Q: What about the “Ryegrass plant response rating” value ([8]; Rate 32 g/ha) of the same compound?
A: The value was 20.

Q: And the “Sunflower plant response rating” value ([9]; Rate 2 g/ha)?
A: The value was 0.

Q: What about the “Sunflower plant response rating” value ([9]; Rate 4 g/ha) of the same compound?
A: Its value is 0.

Q: And the “Sunflower plant response rating” value ([9]; Rate 8 g/ha)?
A: Its value is 0.

Q: What about the “Sunflower plant response rating” value ([9]; Rate 16 g/ha) of the same compound?
A: Its value is 0.

Q: And the “Sunflower plant response rating” value ([9]; Rate 32 g/ha)?
A: The value was 0.

Q: What about the “Wheat (Spring) plant response rating” value ([10]; Rate 2 g/ha) of the same compound?
A: Its value is 0.

Q: And the “Wheat (Spring) plant response rating” value ([10]; Rate 4 g/ha)?
A: The value was 0.

Q: And the “Wheat (Spring) plant response rating” value ([10]; Rate 8 g/ha)?
A: Its value is 0.

Q: And the “Wheat (Spring) plant response rating” value ([10]; Rate 16 g/ha)?
A: The value was 10.

Q: What about the “Wheat (Spring) plant response rating” value ([10]; Rate 32 g/ha) of the same compound?
A: The value was 20.

Q: What about the “Wheat (Winter) plant response rating” value ([11]; Rate 2 g/ha) of the same compound?
A: The value was 0.

Q: And the “Wheat (Winter) plant response rating” value ([11]; Rate 4 g/ha)?
A: Its value is 10.

Q: What about the “Wheat (Winter) plant response rating” value ([11]; Rate 8 g/ha) of the same compound?
A: The value was 10.

Q: What about the “Wheat (Winter) plant response rating” value ([11]; Rate 16 g/ha) of the same compound?
A: Its value is 10.

Q: What about the “Wheat (Winter) plant response rating” value ([11]; Rate 32 g/ha) of the same compound?
A: The value was 20.

Q: And the “Wild mustard plant response rating” value ([12]; Rate 2 g/ha)?
A: The value was 90.

Q: What about the “Wild mustard plant response rating” value ([12]; Rate 4 g/ha) of the same compound?
A: The value was 100.

Q: And the “Wild mustard plant response rating” value ([12]; Rate 8 g/ha)?
A: Its value is 100.

Q: And the “Wild mustard plant response rating” value ([12]; Rate 32 g/ha)?
A: The value was 100.

Q: What about the “Wild oat (1) plant response rating” value ([13]; Rate 2 g/ha) of the same compound?
A: The value was 0.

Q: And the “Wild oat (2) plant response rating” value ([13]; Rate 2 g/ha)?
A: The value was 0.

Q: What about the “Wild oat (1) plant response rating” value ([13]; Rate 4 g/ha) of the same compound?
A: The value was 10.

Q: What about the “Wild oat (2) plant response rating” value ([13]; Rate 4 g/ha) of the same compound?
A: The value was 0.

Q: What about the “Wild oat (1) plant response rating” value ([13]; Rate 8 g/ha) of the same compound?
A: Its value is 20.

Q: What about the “Wild oat (2) plant response rating” value ([13]; Rate 8 g/ha) of the same compound?
A: Its value is 0.

Q: And the “Wild oat (1) plant response rating” value ([13]; Rate 16 g/ha)?
A: The value was 20.

Q: And the “Wild oat (2) plant response rating” value ([13]; Rate 16 g/ha)?
A: Its value is 0.

Q: And the “Wild oat (1) plant response rating” value ([13]; Rate 32 g/ha)?
A: Its value is 30.

Q: And the “Wild oat (2) plant response rating” value ([13]; Rate 32 g/ha)?
A: The value was 20.

Q: And the “Wild radish plant response rating” value ([14]; Rate 2 g/ha)?
A: Its value is 0.

Q: And the “Wild radish plant response rating” value ([14]; Rate 4 g/ha)?
A: The value was 0.

Q: And the “Wild radish plant response rating” value ([14]; Rate 8 g/ha)?
A: Its value is 10.

Q: What about the “Wild radish plant response rating” value ([14]; Rate 16 g/ha) of the same compound?
A: The value was 100.
